melting point [°C]	SMILES
174.5 to 176	Cn1ncnc1COc1nn2c(-c3ccccc3)nnc2c(Cl)c1N1CCCC1
221.9 to 222.8	Cn1cnc(COc2nn3c(-c4cccs4)nnc3c(Cl)c2N2CCOCC2)n1

Source: patent US6699859B1 (dated 2004)
